Data as given in US11752122B2 (OKLAHOMA MEDICAL RESEARCH FOUNDATION, priority 2018, dated 2023).
Entries after “also recorded” stand apart in the source; their conditions may differ.

Assays:
[1] = Activity and stability of NAC dissolved in water; format: physicochemical; settings: up to 15 days; tested by effect on blocking shear-dependent TGF-β1 activation
From the text: Experimental Design. […] Water was replaced with a fresh solution every week.

[2] = IV formulations; cited from earlier work
[3] = target: T1, latent TGF-β1 released from platelets (Homo sapiens, UniProt P01137); settings: in vitro; cited from earlier work
T1 construct: host or cells: platelet releasate

[4] = test system: aortic valves of LDLR mice on HFD; test: Histology and immunohistochemical staining of aortic valves of LDLR mice on HFD; format: in vivo; settings: LDLR mice at 6 months on HFD, NAC 3-5 and 5-6 months combined, vs untreated
Description: Histology and immunofluorescent staining of aortic valve sections. Mice receiving HFD were euthanized at 6 months and perfused with PBS. Hearts with their attached ascending aorta were excised, fixed in 4% paraformaldehyde for 24 hours and processed for routine paraffin embedding. Tissues were cut in 5 μm thick sections in the middle of the heart to get maximum valve thickness (FIG. 12) and stained with picrosirius red for collagen. For immunofluorescent staining, tissue sections were deparaffinized and rehydrated by immersing in xylene and a series of graded alcohols, followed by heat (97° C.)-induced epitope retrieval using Tris-EDTA buffer, pH 9.0 for 30 minutes. Slides were incubated for 1 hour at RT with blocking buffer (1% BSA+0.3M glycine in Tris-NaCl-Tween buffer) and then incubated overnight at 4° C. with primary antibodies at final concentrations of 0.5 μg/ml. After washing in wash buffer (Tris-NaCl-Tween) and incubation with a fluorescent secondary antibody at RT for 2 hours, slides were washed with wash buffer three times and mounted with a fluorescence mounting medium containing diamidino-2-phenylindole (DAPI) to stain nuclei.
Images were photographed using Ziess 710 Confocal or Nikon eclipse 80i fluorescence microscope. Positively-stained areas and total valve areas in immunohistochemical and histological images were quantified as shown in FIG. 13. Primary antibodies used were anti-phospho-Smad2 (Ser465/467) (AB3849, Millipore), anti-vimentin (ab92547, Abcam), anti-α-SMA (904601, Biolegend), Isolectin B4 (121411, Life Technologies), anti-CD41 (14-0411, eBioscience), anti-CD62P (148301, Biolegend), and anti-collagen (SAB1402151, Sigma). Species-matched secondary antibodies conjugated to Alexa 488, Alexa 594, or Alexa 647 were used. Histology images were analyzed and quantified using ImageJ (NIH).

T1 sequence (P01137 30-278 limits assumed): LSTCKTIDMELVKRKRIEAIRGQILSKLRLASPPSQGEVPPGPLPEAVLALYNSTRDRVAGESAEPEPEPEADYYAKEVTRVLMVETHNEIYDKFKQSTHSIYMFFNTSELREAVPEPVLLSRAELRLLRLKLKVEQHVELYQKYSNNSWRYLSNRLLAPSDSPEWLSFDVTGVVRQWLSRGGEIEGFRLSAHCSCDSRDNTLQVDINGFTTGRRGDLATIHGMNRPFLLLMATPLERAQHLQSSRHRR
T1 sequence (P01137 279-390 limits assumed): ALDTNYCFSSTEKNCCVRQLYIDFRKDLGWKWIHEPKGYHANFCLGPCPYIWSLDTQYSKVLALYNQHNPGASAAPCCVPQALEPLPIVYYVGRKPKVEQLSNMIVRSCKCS
T1 sequence (Q14766 24-1721 partner): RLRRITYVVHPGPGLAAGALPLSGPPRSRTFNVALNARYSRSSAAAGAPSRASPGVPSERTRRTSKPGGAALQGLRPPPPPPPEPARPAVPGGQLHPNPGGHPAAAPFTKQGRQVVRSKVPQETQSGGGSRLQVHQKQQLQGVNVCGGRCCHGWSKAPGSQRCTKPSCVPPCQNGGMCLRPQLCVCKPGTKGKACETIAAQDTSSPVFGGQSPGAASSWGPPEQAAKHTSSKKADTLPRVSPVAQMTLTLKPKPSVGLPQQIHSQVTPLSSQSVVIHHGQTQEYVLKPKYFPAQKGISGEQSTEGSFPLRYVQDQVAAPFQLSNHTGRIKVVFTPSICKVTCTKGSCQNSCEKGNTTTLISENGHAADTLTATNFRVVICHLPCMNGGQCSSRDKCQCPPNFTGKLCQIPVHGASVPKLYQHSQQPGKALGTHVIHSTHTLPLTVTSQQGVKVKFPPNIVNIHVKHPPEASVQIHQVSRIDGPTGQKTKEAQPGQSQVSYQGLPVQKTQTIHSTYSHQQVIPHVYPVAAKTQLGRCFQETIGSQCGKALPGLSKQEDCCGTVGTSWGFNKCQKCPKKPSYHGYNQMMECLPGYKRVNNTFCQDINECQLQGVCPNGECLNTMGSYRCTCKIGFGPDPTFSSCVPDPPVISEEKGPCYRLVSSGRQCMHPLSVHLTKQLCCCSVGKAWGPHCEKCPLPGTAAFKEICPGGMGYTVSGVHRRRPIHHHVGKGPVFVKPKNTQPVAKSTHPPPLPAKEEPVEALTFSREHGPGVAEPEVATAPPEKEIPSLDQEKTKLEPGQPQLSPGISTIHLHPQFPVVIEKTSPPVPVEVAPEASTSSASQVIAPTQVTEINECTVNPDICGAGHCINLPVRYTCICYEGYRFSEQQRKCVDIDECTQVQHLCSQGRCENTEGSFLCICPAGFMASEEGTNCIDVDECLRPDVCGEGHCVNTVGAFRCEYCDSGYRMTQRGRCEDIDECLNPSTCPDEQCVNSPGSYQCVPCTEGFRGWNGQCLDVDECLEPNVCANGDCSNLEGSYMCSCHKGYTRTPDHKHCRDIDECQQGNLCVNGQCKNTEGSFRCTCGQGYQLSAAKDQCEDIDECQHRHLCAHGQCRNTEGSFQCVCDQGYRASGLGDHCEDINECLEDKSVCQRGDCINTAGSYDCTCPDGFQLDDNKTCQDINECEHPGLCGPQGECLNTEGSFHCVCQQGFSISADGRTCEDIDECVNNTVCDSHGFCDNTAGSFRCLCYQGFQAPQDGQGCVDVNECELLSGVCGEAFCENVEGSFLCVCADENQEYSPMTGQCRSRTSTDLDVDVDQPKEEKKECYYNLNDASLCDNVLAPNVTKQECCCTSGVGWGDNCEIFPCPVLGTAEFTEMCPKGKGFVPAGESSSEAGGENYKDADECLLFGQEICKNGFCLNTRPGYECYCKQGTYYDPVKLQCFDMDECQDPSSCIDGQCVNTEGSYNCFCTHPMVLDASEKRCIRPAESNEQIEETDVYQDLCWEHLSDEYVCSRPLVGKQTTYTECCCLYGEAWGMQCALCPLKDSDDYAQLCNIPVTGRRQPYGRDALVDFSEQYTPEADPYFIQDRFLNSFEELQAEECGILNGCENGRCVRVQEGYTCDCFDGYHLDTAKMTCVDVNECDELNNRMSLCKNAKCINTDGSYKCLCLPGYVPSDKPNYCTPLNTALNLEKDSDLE

For `CC(=O)N[C@@H](CS)C(=O)O` [NAC, N-acetylcysteine], the “activity and stability after dissolving in water” value [1] is given as “validated”, the “patients experiencing anaphylaxis reaction” value [2] is given as “Up to 18%” and the “shear-dependent activation of latent TGF-β1 released from platelets” value [3] is given as “inhibited; also recorded: partially inhibits; also recorded: blocks”. The aortic valve area [4] was “reduced”, the “fibrosis in aortic valves” value [4] was “reduced” and the “p-Smad2 staining in aortic valves” value [4] was “reduced”.
